Measured values from patent EP0351767A2, “Use of potassium channel activators to inhibit myocardial cell necrosis and to maintain the functioning of the heart during myocardial ischemia and/or reperfusion” (E.R. SQUIBB & SONS, INC., priority 1988, dated 1990).
Like-named read-outs stand apart in the source and are kept apart here. Values belong to the molecule of their own block, whether it stands above or below them.

Legend:
rat portal vein = test: Inhibition of spontaneous mechanical activity (twitch height and frequency) in isolated rat portal vein; conditions: for IC50: Rattus norvegicus
Procedure: (§1) A bicarbonate buffered physiological salt solution (PSS) was used containing, in mM: 118.4 NaCl, 4.7 KCl, 1.2 KH₂PO₄ 1.2 MgSO₄, 2.5 CaCl₂, 25.0 NaHCO₃ and 11.7 glucose. PSS with varying concentrations of KCl was prepared by addition of appropriate amounts of KCl from a 4M KCl stock. Calcium free PSS was prepared by deletion of CaCl₂ and addition of 1.0 mM [ethylenebis(oxyethylenitrilo)]-tetraacetic acid (EGTA). All solutions were aerated with 95% O₂-5% CO₂ such that the pH was 7.4. Experiments were conducted at 37°C.
Stock solutions of test compounds were prepared daily. The compounds were dissolved in water or DMSO as appropriate.
(§2) Normotensive male Wistar Kyoto rats approximately 14 weeks old were sacrificed using CO₂. The thoracic aorta and portal vein were quickly removed and placed into cold PSS. Blood was rinsed from the lumen and adherent connective tissue was carefully removed. Rings approximately 4 mm in width were cut from each aorta. The endothelium was mechanically removed by inserting a wire into the lumen and gently rolling the ring on filter paper moistened with PSS. The aortic rings were mounted on stainless steel tissue wires attached to tissue holders. An intact segment of portal vein extending approximately 2 cm from the liver hilus was mounted longitudinally on tissue holders. The tissues were suspended in individual 20 ml organ chambers and connected to a micrometer for control of tissue length and a Grass FT.03 force transducer. Mechanical responses were recorded on Grass Model 7D polygraphs.
The rat portal vein segments were gradually stretched over a 1 to 2 hour equilibration period to a preload of 0.5 g. When the frequency and height of the spontaneous twitches had stabilized, propranolol (1 µM) was added and cumulative concentration response curves were obtained for the test compounds. A steady state reduction of the twitch height and frequency was reached before the next concentration was added.
Force development by the portal vein segments was determined at the peak of the twitch. The effect of each compound on force was calculated relative to the force in its absence. IC₅₀ values were determined at the concentration where 50% of the maximal inhibition force was attained. In addition, the relative frequency of twitches was determined by counting the number of twitches in a 5 minute period following drug addition and determining the change in rate from basal (absence of test compund). Results were then calculated as % inhibition of twitch frequency. Data are report as mean ± SEM.

[1] = test system: isolated, buffer perfused rat hearts; test: Global ischemia (25 min) and reperfusion (30 min) in isolated, buffer perfused rat hearts (Langendorff)
Procedure: For the determination of the effect of the potassium channel activators pinacidil and BRL 34915 (cromakalim) on post-ischemic necrosis and function, isolated, buffer perfused rat hearts were used. Male Sprague-Dawely rats (450-550 g) were used for all experiments. The rats were anesthetized using 30 mg/kg sodium pentobarbital (i.p.) They were intubated and then treated with i.v. heparin (1000 U/kg). While being mechanically ventilated, their hearts were perfused in situ via retrogade cannulation of the aorta. The hearts were then excised and quickly moved to a Langendorff apparatus where they were perfused with Krebs-Henseleit (1.25 mM CaCl₂) buffer at a constant pressure (80 mmHg). A saline-filled latex balloon attached to a metal cannula was then inserted into the left ventricle and connected to a Statham pressure transducer for measurement of left ventricular systolic and developed (LVDP) pressure. The hearts were allowed to equilibrate for 15 minutes at which time end diastolic pressure (EDP) was adjusted to 5 mm Hg and this was maintained for 5 minutes. Pre-ischemia, pre-drug function (HRXLVDP/1000), heart rate, and coronary blood flow (extracorporeal electromagnetic flow probe, Carolina Medical Electronics, King, N.C.) were then determined.
Once the baseline measurements were made, the hearts were divided into 4 groups (n=4-6 each): 1. Hearts receiving vehicle. 2. Hearts receiving 1, 10 or 100 µM pinacidil. 3. Hearts receiving 1 or 7 µM BRL 34915. 4. Hearts receiving 1, 10 or 100 µM nicroandil. Each heart received its respective treatment in the perfusion buffer for 10 minutes at which time functional and flow parameters were again measured. All hearts were then made globally ischemic by shutting off the perfusate for 25 minutes. Reperfusion was then instituted with the normal nondrug treated buffer. Reperfusion was maintained for 30 minutes at which time flow and functional parameters were again measured. Lactate dehydrogenase (LDH) release into the reperfusion effluent was measured and this is a measure of myocardial cell death or necrosis. The severity of ischemia was determined by the return of function during reperfusion, mitigation of contracture (lower end diastolic pressure) and LDH release.

[2] = test system: Ischemic-Reperfused Myocardium; conditions: infusion prior to and during a 15-min coronary occlusion; 3-h reperfusion period; cited from earlier work
aorta = test: Comparison of potency in aorta (phenylephrine contractions) and portal vein; design: species or system rat; conditions: portal vein compared with aorta
Procedure: as §1
as §2, with “The tissues were suspended in individual 20 ml organ chambers and connected to a micrometer for control of tissue length and a Grass FT.03 force transducer.” left out

[3] = test system: awake dogs with acute myocardial infarction; conditions: cited from earlier work
[4] = inhibition of spontaneous mechanical activity (twitch height), cumulative concentration response curves, propranolol 1 µM present, N=4 (cromakalim, pinacidil N=5), read-out: IC₅₀

SMILES: Nc1nc2c(nc(Br)n2[C@@H]2O[C@@H]3COP(=O)(O)O[C@H]3[C@H]2O)c(=O)[nH]1 [8-Bromo cyclic GMP]
- IC50 (rat portal vein; [4]): 43 µM
- twitch frequency (rat portal vein; frequency of spontaneous contractions with increasing concentration): reduced twitch frequency

SMILES: O=C(O)c1cccnc1 [nicotinic acid]
- recovery of mycocardial segment function (%SS, dL/dt) [2]: significantly improved recovery

SMILES: CC(NC(=NC#N)Nc1ccncc1)C(C)(C)C (single isomer, unassigned; (+)) [Pinacidil, (+)-2-cyano-1-(4-pyridyl)-3-(1,2,2-trimethylpropyl)guanidine]
- blood flow to ischemic myocardium [3]: no effect
- infarct size [3]: no effect
- post-ischemic cardiac function ([1]; 10 µM, 30 min reperfusion): significantly improved
- reperfusion end diastolic pressure (EDP) (contracture) ([1]; 10 µM, 30 min reperfusion): reduced
- toxic effects (before ischemia reduction in function) ([1]; 100 µM): a tendency for toxic effects
- anti-ischemic activity ([1]; 1 and 100 µM in perfusion buffer for 10 min before ischemia): did not show any marked anti-ischemic activity
- necrosis as measured by lactate dehydrogenase (LDH) release ([1]; at the doses used (1, 10 or 100 µM)): did not significantly reduce necrosis
- IC50 (rat portal vein; [4]): 0.15 µM

Further lines, with some results ahead:

- IC50 (rat portal vein; [4]): 38 µM
SMILES: CC1(C)Oc2ccc(C#N)cc2[C@@H](N)[C@@H]1O (relative stereo) [SQ 32,844, (trans)-4-amino-3,4-dihydro-3-hydroxy-2,2-dimethyl-2H-1-benzopyran-6-carbonitrile]

- IC50 (rat portal vein; [4]): 0.12 µM
SMILES: CC1(C)Oc2ccc(C#N)cc2[C@@H](N2CCCC2=O)[C@@H]1O (racemic) [Cromakalim, (±)-6-cyano-3,4-dihydro-2,2-dimethyl-trans-4-(2-oxo-1-pyrrolidyl)-2H-benzo[b]-pyran-3-ol]
- LDH release and thus necrosis ([1]; 7 µM): reduced
- myocardial function during reperfusion ([1]; 7 µM): improved

- IC50 (rat portal vein; values restated in text, read-out: IC₅₀ (50% of the maximum inhibition) in the inhibition of spontaneous mechanical activity in rat portal vein): 5.1 µM
- IC50 (rat portal vein; [4]): 5.1 µM
SMILES: O=C(NCCO[N+](=O)[O-])c1cccnc1 [Nicorandil, N-(2-hydroxyethyl)nicotinamide nitrate ester]
- recovery of mycocardial segment function (%SS, dL/dt) [2]: significantly improved recovery
- potency in the aorta and portal vein (aorta): reduced potency
- effectiveness (anti-ischemic) ([1]; any dose used (1, 10 or 100 µM)): not showed to be effective
